Test results as given in patent US20230111853A1, “COMPOUNDS MODULATING PROTEIN RECRUITMENT AND/OR DEGRADATION” (Orionis Biosciences, Inc., priority 2019, published 2023).

System: IKZF1, ASS1 and SALL4 recruitment to CRBN
Test: Recruitment assessment: recruitment of any tested substrate from among IKZF1, ASS1 and SALL4
Assay type: cell-based
Conditions: any tested substrate at any tested compound concentration
Protocol: In this experimental set-up, cells were transfected with a construct encoding a CRBN-fusion protein and another one encoding a substrate-fusion protein. Test compound activity was assessed with increasing concentrations of test compounds (dose-response studies) to monitor the ability to promote CRBN-ligand-induced protein interaction.
Full size proteins were fused for each of the target proteins tested, except in the case of IKZF1 where isoform 7 was used. For the study, the following were used: IKZF1 recruitment: pSEL-CRBN+pMG1-IKZF1(isoform 7); ASS1 recruitment: pSEL-CRBN+pMG1-ASS1. SALL4 recruitment: pSEL-SALL4+pMG1-CRBN. […] Luciferase activity was measured 24 hours after test compound treatment using the Luciferase Assay System kit (PROMEGA, Madison, Wis.) with an Ensight plate reader (PERKIN ELMER LIFE SCIENCES, Waltham, Mass.). Data points depicted fold induction of the average luciferase activity of triplicate samples from EPO+test compound treated cells versus EPO only treated cells. Error bars represent standard deviations. Curves were fit using 4-parameter nonlinear regression in […] PRISM software.

Structure (SMILES): CC1CN(C(=O)CNc2ccc3c(c2)C(=O)N(C2CCC(=O)NC2=O)C3)CC(=O)N1 (stereo not shown) [C12598, 3-[6-[[2-(3-methyl-5-oxo-piperazin-1-yl)-2-oxo-ethyl]amino]-1-oxo-isoindolin-2-yl]piperidine-2,6-dione]
- Recruitment Assessment: FALSE

Structure (SMILES): NC(=O)Nc1cccc2c1CN(C1CCC(=O)NC1=O)C2=O (stereo not shown) [C29490, [2-(2,6-dioxo-3-piperidyl)-1-oxo-isoindolin-4-yl]urea]
- Recruitment Assessment: TRUE

Structure (SMILES): C=CCC1c2ccccc2C(=O)N1C1CCC(=O)NC1=O (stereo not shown) [C96413, 3-(1-allyl-3-oxo-isoindolin-2-yl)piperidine-2,6-dione]
- Recruitment Assessment: FALSE

Structure (SMILES): COc1cccc2c1C(=O)N(C1CCC(=O)NC1=O)C2 (stereo not shown) [C29137, 3-(7-methoxy-1-oxo-isoindolin-2-yl)piperidine-2,6-dione]
- Recruitment Assessment: FALSE

Structure (SMILES): O=C1Cc2ccccc2C(=O)N1 [C15352, 4H-isoquinoline-1,3-dione]
- Recruitment Assessment: FALSE

Structure (SMILES): O=C1CC[C@H](N2Cc3c(OCc4ccc(CN5CCOCC5)cc4)cccc3C2=O)C(=O)N1 [CC-220, (3S)-3-[4-[[4-(morpholinomethyl)phenyl]methoxy]-1-oxo-isoindolin-2-yl]piperidine-2,6-dione, reference compound]
- Recruitment Assessment: TRUE

Structure (SMILES): Cc1cc(Nc2ccc3c(c2)C(=O)N(C2CCC(=O)NC2=O)C3)ncn1 (stereo not shown) [C80384, 3-[6-[(6-methylpyrimidin-4-yl)amino]-1-oxo-isoindolin-2-yl] piperidine-2,6-dione]
- Recruitment Assessment: FALSE

Structure (SMILES): O=C1CCC(N2C(=O)CCC2=O)C(=O)N1 (stereo not shown) [C14950, 3-(2,5-dioxopyrrolidin-1-yl)piperidine-2,6-dione]
- Recruitment Assessment: FALSE

Structure (SMILES): O=C1CCC(N2Cc3ccc(NCC(=O)NC4CC4)cc3C2=O)C(=O)N1 (stereo not shown) [C84963, N-cyclopropyl-2-[[2-(2,6-dioxo-3-piperidyl)-3-oxo-isoindolin-5-yl]amino]acetamide]
- Recruitment Assessment: FALSE

Structure (SMILES): O=C1c2ccccc2CC1n1ccc(=O)[nH]c1=O (stereo not shown) [C16899, 1-(1-oxoindan-2-yl)pyrimidine-2,4-dione]
- Recruitment Assessment: FALSE

Structure (SMILES): O=C1CCC(N2Cc3ccc(NCC(=O)N4CC5CC4CO5)cc3C2=O)C(=O)N1 (stereo not shown) [C12589, 3-[6-[[2-(2-oxa-5-azabicyclo[2.1.1]heptan-5-yl)-2-oxo-ethyl]amino]-1-oxo-isoindolin-2-yl]piperidine]
- Recruitment Assessment: FALSE

Structure (SMILES): O=C1CCC(N2Cc3cccc(-c4ccccc4)c3C2=O)C(=O)N1 (stereo not shown) [C48020, 3-(1-oxo-7-phenyl-isoindolin-2-yl)piperidine-2,6-dione]
- Recruitment Assessment: FALSE

Structure (SMILES): NCc1ccc2c(c1)C(=O)N(C1CCC(=O)NC1=O)C2 (stereo not shown) [C66979, 3-[6-(aminomethyl)-1-oxo-isoindolin-2-yl]piperidine-2,6-dione]
- Recruitment Assessment: FALSE

Structure (SMILES): CC(=O)Nc1cccc2c1CN(C1CCC(=O)NC1=O)C2=O (stereo not shown) [C29330, N-[2-(2,6-dioxo-3-piperidyl)-1-oxo-isoindolin-4-yl]acetamide]
- Recruitment Assessment: TRUE

Structure (SMILES): O=C1CCC(N2Cc3ccc(NCC(=O)N4CCc5ccccc5C4)cc3C2=O)C(=O)N1 (stereo not shown) [C95329, 3-[6-[[2-(3,4-dihydro-1H-isoquinolin-2-yl)-2-oxo-ethyl]amino]-1-oxo-isoindolin-2-yl]piperidine-2,6-]
- Recruitment Assessment: FALSE

Structure (SMILES): O=C(O)CNc1ccc2c(c1)C(=O)N(C1CCC(=O)NC1=O)C2 (stereo not shown) [C47997, 2-[[2-(2,6-dioxo-3-piperidyl)-3-oxo-isoindolin-5-yl]amino]acetic acid]
- Recruitment Assessment: FALSE

Structure (SMILES): Nc1cccc2c1CN(C1CCCC(=O)NC1=O)C2=O (stereo not shown) [C47932, 3-(4-amino-1-oxo-isoindolin-2-yl)azepane-2,7-dione]
- Recruitment Assessment: TRUE

Structure (SMILES): CN(CC1CC1)C(=O)CNc1ccc2c(c1)C(=O)N(C1CCC(=O)NC1=O)C2 (stereo not shown) [C95338, N-(cyclopropylmethyl)-2-[[2-(2,6-dioxo-3-piperidyl)-3-oxo-isoindolin-5-yl]amino]-N-methyl-acetamide]
- Recruitment Assessment: FALSE

Structure (SMILES): Nc1cccc2c1CN(C1CC(=O)NC(=O)C1)C2=O [C47927, 4-(4-amino-1-oxo-isoindolin-2-yl)piperidine-2,6-dione]
- Recruitment Assessment: TRUE

Structure (SMILES): O=C1CCC(N2Cc3ccc(NC(=O)c4ccc5cnccc5n4)cc3C2=O)C(=O)N1 (stereo not shown) [C80393, N-[2-(2,6-dioxo-3-piperidyl)-3-oxo-isoindolin-5-yl]-1,6-naphthyridine-2-carboxamide]
- Recruitment Assessment: FALSE

Structure (SMILES): CC1CCCCN1C(=O)CNc1ccc2c(c1)C(=O)N(C1CCC(=O)NC1=O)C2 (stereo not shown) [C12584, 3-[6-[[2-(2-methyl-1-piperidyl)-2-oxo-ethyl]amino]-1-oxo-isoindolin-2-yl]piperidine-2,6-dione]
- Recruitment Assessment: FALSE

Structure (SMILES): COC1c2ccccc2C(=O)N1C1CCC(=O)NC1=O (stereo not shown) [C56572, 3-(1-methoxy-3-oxo-isoindolin-2-yl)piperidine-2,6-dione]
- Recruitment Assessment: FALSE

Structure (SMILES): Cc1cc2[nH]cnc(Nc3ccc4c(c3)C(=O)N(C3CCC(=O)NC3=O)C4)c-2n1 (stereo not shown) [C80390, 3-[6-[(6-methylpyrrolo[3,2-d]pyrimidin-4-yl)ammo]-1-oxo-isoindolin-2-yl]piperidine-2,6-dione]
- Recruitment Assessment: TRUE

Structure (SMILES): O=C1CCC(N2Cc3ccc(NCC(=O)N4CCCCC4)cc3C2=O)C(=O)N1 (stereo not shown) [C12581, 3-[1-oxo-6-[[2-oxo-2-(1-piperidyl)ethyl]amino]isoindolin-2-yl]piperidine-2,6-dione]
- Recruitment Assessment: FALSE

Structure (SMILES): O=C(O)CNc1cccc2c1CN(C1CCC(=O)NC1=O)C2=O (stereo not shown) [2-[[2-(2,6-dioxo-3-piperidyl)-1-oxo-isoindolin-4-yl]amino]acetic acid]
- Recruitment Assessment: FALSE

Structure (SMILES): O=C1CCC(N2Cc3ccccc3C2=O)C(=O)N1 (single isomer, unassigned) [5′-OH-THL, 3-(1-oxoisoindolin-2-yl)piperidine-2,6-dione, reference compound]
- Recruitment Assessment: FALSE

Structure (SMILES): O=C1N=c2ccc(NC(=O)NCc3ccccc3)cc2=N1 [1-benzyl-3-(2-oxobenzimidazol-5-yl)urea]
- Recruitment Assessment: FALSE

Structure (SMILES): O=C1CCC(N2C(=O)c3ccccc3C2Nc2ccccc2)C(=O)N1 (stereo not shown) [C10537, 3-(1-anilino-3-oxo-isoindolin-2-yl)piperidine-2,6-dione]
- Recruitment Assessment: FALSE

Structure (SMILES): COc1ccc(C2c3ccccc3C(=O)N2C2CCC(=O)NC2=O)cc1 (stereo not shown) [C11892]
- Recruitment Assessment: FALSE

Structure (SMILES): N#Cc1cccc2c1C(=O)N(C1CCC(=O)NC1=O)C2 (stereo not shown) [C48009, 2-(2,6-dioxo-3-piperidyl)-3-oxo-isoindoline-4-carbonitrile]
- Recruitment Assessment: FALSE

Structure (SMILES): O=C1CCC(N2C(=O)c3ccccc3C2OCc2ccccc2)C(=O)N1 (stereo not shown) [3-(1-benzyloxy-3-oxo-isoindolin-2-yl)piperidine-2,6-dione]
- Recruitment Assessment: FALSE

Structure (SMILES): O=C1c2c(F)c(F)c(F)c(F)c2C(=O)N1c1ccc(F)cc1F [C34491, 2-(2,4-difluorophenyl)-4,5,6,7-tetrafluoro-isoindoline-1,3-dione]
- Recruitment Assessment: FALSE

Structure (SMILES): CC(=O)O.O=C1CCC(N2Cc3ccc(Nc4ncnc5ccccc45)cc3C2=O)C(=O)N1 (stereo not shown) [C80382 acetic acid salt, acetic acid; 3-[1-oxo-6-(quinazolin-4-ylamino)isoindolin-2-yl]piperidine-2,6-dione]
- Recruitment Assessment: FALSE

Structure (SMILES): O=C1CCC(N2C(=O)CC3(CCOCC3)C2=O)C(=O)N1 (stereo not shown) [C64348, 2-(2,6-dioxo-3-piperidyl)-8-oxa-2-azaspiro[4.5]decane-1,3-dione]
- Recruitment Assessment: FALSE

Structure (SMILES): O=C1CCC(N2Cc3ccc(NC(=O)c4ccc5ccccc5n4)cc3C2=O)C(=O)N1 (stereo not shown) [C80392, N-[2-(2,6-dioxo-3-piperidyl)-3-oxo-isoindolin-5-yl]quinoline-2-carboxamide]
- Recruitment Assessment: FALSE

Structure (SMILES): CN(C)C(=O)CNc1ccc2c(c1)C(=O)N(C1CCC(=O)NC1=O)C2 (stereo not shown) [C84964, 2-[[2-(2,6-dioxo-3-piperidyl)-3-oxo-isoindolin-5-yl]amino]-N,N-dimethyl-acetamide]
- Recruitment Assessment: FALSE

Structure (SMILES): O=C1CCC(N2Cc3ccccc3C2=O)C(=O)N1 (stereo not shown) [3-(1-oxoisoindolin-2-yl)piperidine-2,6-dione]
- Recruitment Assessment: TRUE

Structure (SMILES): CC1CCN(C(=O)CNc2ccc3c(c2)C(=O)N(C2CCC(=O)NC2=O)C3)CC1 (stereo not shown) [C12582, 3-[6-[[2-(4-methyl-1-piperidyl)-2-oxo-ethyl]amino]-1-oxo-isoindolin-2-yl]piperidine-2,6-dione]
- Recruitment Assessment: FALSE

Structure (SMILES): O=C1CCC(N2Cc3ccc(NC(=O)C4=C5C=CN=C5N=CC4)cc3C2=O)C(=O)N1 (stereo not shown) [C80395, N-[2-(2,6-dioxo-3-piperidyl)-3-oxo-isoindolin-5-yl]-5H-pyrrolo [2,3-b]pyridine-4-carboxamide]
- Recruitment Assessment: TRUE

Structure (SMILES): O=C1CCC(N2C(=O)c3ccccc3C2OC2CCCCC2)C(=O)N1 (stereo not shown) [3-[1-(cyclohexoxy)-3-oxo-isoindolin-2-yl]piperidine-2,6-dione]
- Recruitment Assessment: FALSE

Structure (SMILES): O=C1CCC(N2C(=O)C3CC=CCC3C2=O)C(=O)N1 (stereo not shown) [C51647, 2-(2,6-dioxo-3-piperidyl)-3a,4,7,7a-tetrahydroisoindole-1,3-dione]
- Recruitment Assessment: FALSE

Structure (SMILES): CC(=O)Nc1cccc2c1C(=O)N(C1CCC(=O)NC1=O)C2 (stereo not shown) [C29457, N-[2-(2,6-dioxo-3-piperidyl)-3-oxo-isoindolin-4-yl]acetamide]
- Recruitment Assessment: TRUE

Structure (SMILES): Cn1ncc2c(Nc3ccc4c(c3)CN(C3CCC(=O)NC3=O)C4=O)ncnc21 (stereo not shown) [C80374, 3-[5-[(1-methylpyrazolo[3,4-d]pyrimidin-4-yl)amino]-1-oxo-isoindolin-2-yl]piperidine-2,6-dione]
- Recruitment Assessment: TRUE
